Where a name gives a salt, the structure may show the parent alone.
Legend:
dd strain male mice [1] = experiment: Analgesic activity test: modified Haffner method; assay type: in vivo; conditions: 30 min before 2 mg/kg morphine hydrochloride s.c., tail clamp, 95% confidence limits in parentheses; for ED50: Mus musculus
Experimental: (§1) The results of analgesic activity test and acute toxicity test performed on the compounds of this invention and aminopyrin as control are as described below.
Groups of each 10 dd strain male mice (about 19 g in body weight) were used for the test. Thirty minutes after the oral administration of the drug under test, 2 mg/kg of morphine hydrochloride was subcutaneously injected. After 15 minutes, the basal part of the mouse tail was clamped with Kocher's forcepts four times at each time interval of 15 minutes to observe the pain reaction of each mouse. The percentage effectiveness was calculated by the formula [formula] From the effectiveness data, the median effective dose (ED50) and its 95% confidence limits were calculated by the method of Litchfield-Wilcoxon.

dd strain male mice [2] = experiment: Analgesic activity test: acetic acid-induced stretching method; assay type: in vivo; conditions: Mus musculus, oral, 30 min before 0.6% acetic acid i.p., 95% confidence limits in parentheses on the next line
Experimental: as §1
Groups of each 10 dd strain male mice (about 18 g in body weight) were used for the test. Each mouse was orally administered with the drug being tested. Thirty minutes after the administration, 0.1 ml/10 g of a 0.6% acetic acid solution was intraperitoneously injected. […] The percentage effectiveness was determined by the formula [formula] From the effectiveness data, the median effective dose (ED50) and its 95% confidence limits were calculated by the method of Litchfield-Wilcoxon.

Acute toxicity test = assay type: in vivo, mice; conditions: mouse, in vivo; oral, 72 hours of observation; dd strain male mice; 95% confidence limits in parentheses on the next line
From the text: as §1
(§2) Groups of each 4-6 dd strain male mice (about 19 g in body weight) were used for the test. […] When the median lethal dose was not obtainable, the dose (mg/kg) and the ratio (number of dead animals)/(number of test animals) were shown in Table 2.

dd strain male mice [3] = experiment: Acute toxicity test; assay type: in vivo; conditions: 72 hours
From the text: as §1, §2

Structure (SMILES) | ED50 (dd strain male mice [1]; po) [mg/kg] | ED50 (dd strain male mice [2]) [mg/kg] | LD50 at 72 h (Acute toxicity test) [mg/kg] | Acute toxicity, (number of dead animals)/(number of test animals) (dd strain male mice [3]; 100 mg/kg (so in the source) oral) | Acute toxicity, (number of dead animals)/(number of test animals) (dd strain male mice [3]; 250 mg/kg oral) | Acute toxicity, (number of dead animals)/(number of test animals) (dd strain male mice [3]; 500 mg/kg oral) | Acute toxicity, (number of dead animals)/(number of test animals) (dd strain male mice [3]; 1000 mg/kg oral) | Analgesic activity, ED50, Haffner method (dd strain male mice [1]; oral) [mg/kg] | ED50 (dd strain male mice [1]; oral) [mg/kg]
Cc1c(N(C)C)c(=O)n(-c2ccccc2)n1C [Aminopyrin, aminopyrin, reference compound] | 65 | 63 | 750 | – | – | – | – | – | –
Fc1ccccc1N1CCN(CC2CC2)CC1 [Compound 1] | 11 | 12.6 | – | 6/6 | 2/6 | 3/6 | – | – | –
Cl.Cl.Fc1ccc(N2CCN(CC3CC3)CC2)cc1 [Compound 2, 1-(cyclopropylmethyl)-4-(4-fluorophenyl)piperazine dihydrochloride] | 13.2 | 9.4 | – | – | 1/6 | 5/6 | 6/6 | – | –
Clc1cccc(N2CCN(CC3CC3)CC2)c1 [Compound 3] | 13.8 | – | – | – | 0/6 | 2/6 | 6/6 | – | –
Clc1ccc(N2CCN(CC3CC3)CC2)cc1 [Compound 4] | 6.3 | 17.9 | – | – | 0/6 | 5/6 | 6/6 | – | –
Clc1ccc(N2CCN(CC3CC3)CC2)cc1Cl [Compound 5] | 7.2 | 17.2 | – | – | 0/6 | 2/6 | 6/6 | – | –
Cl.Cl.FC(F)(F)c1cccc(N2CCN(CC3CC3)CC2)c1 [Compound 6, 1-(cyclopropylmethyl)-4-(3-trifluoromethylphenyl)piperazine dihydrochloride] | 3.7 | 2.8 | – | – | 0/6 | 4/6 | 6/6 | – | –
FC(F)(F)c1cccc(N2CCN(CC3CC3)CC2)c1 [Compound 7] | 5.5 | – | – | – | 0/6 | 2/6 | 6/6 | – | –
FC(F)(F)c1cccc(N2CCN(CC3CC3)CC2)c1 [Compound 9] | – | – | – | – | 0/6 | 3/6 | 6/6 | 4.9 | –
FC(F)(F)c1cccc(N2CCN(CC3CC3)CC2)c1.O=C(O)CC(O)(CC(=O)O)C(=O)O [Compound 10, 1-(Cyclopropylmethyl)-4-(3-trifluoromethylphenyl)piperazine citrate] | – | 8.7 | – | – | 0/6 | 2/6 | 6/6 | – | 2.5
FC(F)(F)c1cc(N2CCN(CC3CC3)CC2)ccc1Cl [Compound 11] | 5.8 | 20.2 | – | – | 0/6 | 5/6 | 6/6 | – | –
CC(C)N1CCN(c2cccc(C(F)(F)F)c2)CC1 [Compound 12, 1-(3-trifluoromethyl)-4-isopropylpiperazine dihydrochloride] | 4.9 | 4.2 | – | – | 0/6 | 6/6 | 6/6 | – | –
C=CCN1CCN(c2cccc(C(F)(F)F)c2)CC1.Cl.Cl [Compound 14, 1-Allyl-4-(3-trifluoromethylphenyl)piperazine dihydrochloride] | 7 | 13.6 | – | – | 0/6 | 4/6 | 6/6 | – | –

— patent US4518712A, “Piperazine derivative and analgesic composition containing the same” (priority 1980, dated 1985)
